Literature values, collected in US7288574B2, “Two-phase oxygenated solution and method of use” (priority 2001, dated 2007).

Conditions: equilibrium with air (pO2=0.21) at 77° F.

O=O [oxygen]
solubility limit of oxygen in water: approximately 8.3 mg/l
